Measurements published in patent US20130137760A1, “GAMBOGIC AMINE, A SELECTIVE TRKA AGONIST WITH NEUROPROTECTIVE ACTIVITY” (EMORY UNIVERSITY, priority 2007, published 2013).

Columns and labels:
infarct volume = assay: Transient middle cerebral artery occlusion (MCAO) stroke model, infarct volume; design: species or system rats; settings: rat, in vivo
Experimental: To further determine the neuroprotective potential in vivo, test compounds can be tested in a transient middle cerebral artery occlusion (MCAO) stroke model in adult male rats. After 2 h MCAO followed by reperfusion, the animals receive vehicle or test compounds (2 mg/kg) 5 min prior to the onset of reperfusion.
A representative brain slice stained with TTC 24 h after MCAO in vehicle-treated and compound-treated rats can be subjected to area and volume measurements from TTC sections to indicate whether treatments with the compound substantially reduces infarct volumes in this transient ischemic model of stroke. […]
To further determine the neuroprotective potential in vivo, the gambogic amine can be tested in a transient middle cerebral artery occlusion (MCAO) stroke model in adult male rats. […] LDF (laser-Doppler flowmetry) can be measured over the ipsilateral parietal cortex. The effects of the gambogic amine on relative CBF (cerebral blood flow) can be evaluated. After filament withdrawal (120 min), relative CBF can also be measured in the vehicle-treated group and gambogic amine-treated groups, and compared with preischemic levels.
Rats can be used in a study of focal ischemia. […] Using a SurgiVet (model V3304; Waukesha, Wis., USA) pulse oximeter, blood SpO2 can be monitored and maintained at levels 90%. […]

[1] = tested on: T17 cells (TrkA stably transfected SN56 cells); assay: Cell-based apoptotic assay: protection of TrkA-expressing T17 cells from staurosporine-initiated apoptosis, MR(DEVD)2 caspase-3 dye; design: species or system murine; settings: 0.5 μM pre-incubation, then 1 μM STS for 9 h; compared with NGF
Text: In order to identify small molecules that mimic NGF and activate TrkA, we developed a cell-based apoptotic assay using a cell permeable fluorescent dye MR([…])2, which turns red upon caspase-3 cleavage in apoptotic cells. We utilized a murine cell line T17, which was derived from basal forebrain SN56 cells. T17 cells are TrkA stably transfected SN56 cells. The candidates selectively protecting T17 but not SN56 cells from the first round screen can then be subjected to neurite outgrowth assay for the secondary screen. The positive compounds can be analyzed for TrkA tyrosine phosphorylation, Akt and MAP kinases signaling cascade activation.
T17 cells can be cultured in 96-well plates and preincubated with 10 μM compounds for 30 min, followed by 1 μM staurosporine (STS) treatment for 9 h. MR(DEVD)2 can be introduced to the cells 1 h before examination under fluorescent microscope. The apoptotic cells are red, while live cells have no signal. […] Using the caspase-3-activated fluorescent dye as a visual assay, one can screen the gambogic amine compounds.
To compare the apoptosis inhibitory activity of various compounds, one can pre-incubate gambogic amines derivatives (0.5 μM) with T17 and SN56 cells, followed by 1 μM STS for 9 h. Quantitative analysis of the apoptosis inhibitory activities can determine whether the compounds protect SN56 cells from apoptosis.
T17 cells can be seeded in a 96-well plate at 10,000 cells/well in 100 μl complete medium. Cells can be incubated overnight, followed by 30 min pretreatment with 10 μM compounds in DMSO (10 mM stock concentration from The Spectrum Collection library). The cells can then be treated with 1 μM Staurosporine for 9 h. One h before the termination of the experiment, 10 μM MR(DEVD)2, a cell permeable caspase-3-activated fluorescent dye can be introduced. Cells can be fixed with 4% paraformaldehyde for 15 min. Cells can then be washed with PBS and incubated with 1 μg/ml of Hoechst 33342 for 10 min. Cover slides can then be washed with PBS, mounted, and examined using a fluorescence microscope.

Structure (SMILES): CC(C)=CCC[C@]1(C)C=Cc2c(O)c3c(c(CC=C(C)C)c2O1)O[C@]12C(=C[C@@H]4CC1C(C)(C)O[C@@]2(C/C=C(/C)C(N)=O)C4=O)C3=O [gambogic amide]
- decrease of stroke-induced infarct volume (infarct volume): effectively decrease
- apoptosis inhibitory activity in T17 cells [1]: strongly suppress apoptosis in T17 cells with protective activities even stronger than NGF
